Results: patent US20090076049A1, “Novel Spiro [Imidazolidine-4, 3' -Indole] 2, 2', 5' (1H) Triones for Treatment of Conditions Associated with Vanilloid Receptor 1” (AstraZeneca AB, priority 2006, published 2009)

Each compound was assayed against T1, hVR1 (Homo sapiens, UniProt Q8NER1) (assay: hVR1 FLIPR (Fluorometric Image Plate Reader) screening assay, IC50 determination). Conditions: transfected CHO cells stably expressing hVR1; Fluo-4 calcium signal; agonist 50 nM capsaicin or MES buffer pH 5.2.
T1 construct: expressed in transfected cells; host or cells: CHO cells, stably transfected
T1 sequence (Q8NER1 whole entry): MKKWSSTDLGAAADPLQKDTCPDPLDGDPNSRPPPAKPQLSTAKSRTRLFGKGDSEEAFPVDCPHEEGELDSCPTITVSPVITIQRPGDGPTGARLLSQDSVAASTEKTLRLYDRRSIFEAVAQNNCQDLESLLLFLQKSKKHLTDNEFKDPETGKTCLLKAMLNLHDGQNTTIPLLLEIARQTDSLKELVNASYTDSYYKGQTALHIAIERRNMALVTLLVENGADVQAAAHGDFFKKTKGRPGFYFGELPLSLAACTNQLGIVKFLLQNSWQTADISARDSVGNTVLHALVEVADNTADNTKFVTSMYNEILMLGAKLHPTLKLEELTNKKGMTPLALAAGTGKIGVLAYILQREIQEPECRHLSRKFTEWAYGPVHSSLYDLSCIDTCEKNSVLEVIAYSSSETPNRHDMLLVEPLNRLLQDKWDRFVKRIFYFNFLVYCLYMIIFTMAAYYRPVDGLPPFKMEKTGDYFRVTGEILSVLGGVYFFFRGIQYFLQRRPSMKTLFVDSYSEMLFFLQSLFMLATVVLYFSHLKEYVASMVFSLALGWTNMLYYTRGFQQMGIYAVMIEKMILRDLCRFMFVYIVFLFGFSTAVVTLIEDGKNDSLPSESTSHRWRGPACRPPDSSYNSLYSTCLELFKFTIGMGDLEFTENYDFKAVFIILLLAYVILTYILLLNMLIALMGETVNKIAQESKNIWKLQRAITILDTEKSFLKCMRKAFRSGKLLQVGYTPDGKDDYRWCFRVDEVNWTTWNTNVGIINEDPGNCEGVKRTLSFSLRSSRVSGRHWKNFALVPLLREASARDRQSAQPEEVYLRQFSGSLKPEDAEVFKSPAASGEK
Format: cell-based
Protocol: 1. hVR1 FLIPR (Fluorometric Image Plate Reader) Screening Assay
Transfected CHO cells, stably expressing hVR1 (15,000 cells/well) are seeded in 50 μL media in a black clear bottom 384 plate (Greiner) and grown in a humidified incubator (37° C., 2% CO2), 24-30 hours prior to experiment.
Subsequently, the media is removed from the cell plate by inversion and 2 μM Fluo-4 is added using a multidrop (Labsystems). Following the 40 min dye incubation in the dark at 37° C. and 2% CO2, the extracellular dye present is washed away using an EMBLA (Scatron), leaving the cells in 40 μL of assay buffer (1×HBSS, 10 mM D-Glucose, 1 mM CaCl2, 10 mM HEPES, 10×7.5% NaHCO3 and 2.5 mM Probenecid).
FLIPR Assay—IC50 Determination Protocol
For IC50 determinations the fluorescence is read using FLIPR filter 1 (em […]). A cellular baseline recording is taken for 30 seconds, followed by a 20 μL addition of 10, titrated half-log concentrations of the test compound, yielding cellular concentration ranging from 3 μM to 0.1 nM. Data is collected every 2 seconds for a further 5 min prior to the addition of a VR1 agonist solution: either 50 nM solution of capsaicin or MES (2-[N-morpholino]ethanesulfonic acid) buffer (pH 5.2), by the FLIPR pipettor. The FLIPR continues to collect data for a further 4 min. Compounds having antagonistic properties against the hVR1 will inhibit the increase in intracellular calcium in response to the capsaicin addition. This consequently leading to a reduction in fluorescence signal and providing a reduced fluorescence reading, compared with no compound, buffer controls. Data is exported by the FLIPR program as a sum of fluorescence calculated under the curve upon the addition of capsaicin. Maximum inhibition, Hill slope and IC50 data for each compound are generated.

Row | SMILES | IC50 [µM]
1 | O=C1NC(=O)C2(N1)C(=O)N(C/C=C/c1ccc(Cl)c(Cl)c1)c1ccc(OC(F)(F)F)cc12 (stereo not drawn) [Compound 3] | 3
2 | CN1C(=O)N(C)C2(C1=O)C(=O)N(C/C=C/c1ccc(Cl)c(Cl)c1)c1ccccc12 (stereo not drawn) [Compound 5, 1′-[(2E)-3-(3,4-dichlorophenyl)prop-2-en-1-yl]-1,3-dimethyl-2H,5H-spiro[imidazolidine-4,3′-indole]-2,2′,5(1′H)-trione] | 2.11
3 | COCCN1C(=O)N(CCOC)C2(C1=O)C(=O)N(C/C=C/c1ccc(Cl)c(Cl)c1)c1ccccc12 (stereo not drawn) [Compound 7, 1′-[(2E)-3-(3,4-dichlorophenyl)prop-2-en-1-yl]-1,3-bis(2-methoxyethyl)-2H,5H-spiro[imidazolidine-4,3′-indole]-2,2′,5(1′H)-trione] | 3.01
